Measured values published in patent publication US5236937A, “Pyridinyl compounds which are useful as angiotensin II antagonists” (Imperial Chemical Industries PLC, priority 1991, dated 1993).

Test system: angiotensin II-induced pressor responses
Experiment: Test C: inhibition of angiotensin II-induced pressor responses in terminally-anaesthetised or conscious rats
Assay type: in vivo
Settings: iv, rat, i.v. administration
Description: The antagonism of one or more of the physiological actions of AII and, in particular, the antagonism of the interaction of AII with the receptors which mediate its effects on a target tissue, may be assessed using one or more of the following, routine laboratory procedures: Test C: This in vivo test involves using terminally-anaesthetised or conscious rats in which an arterial catheter has been implanted under anaesthesia for the measurement of changes in blood pressure. The AII antagonistic effects of the test compound following oral or parenteral administration, are assessed against angiotensin II-induced pressor responses. To ensure that the effect is specific, the effect of the test compound on vasopressin-induced pressor responses may also be determined in the same preparation.

Cc1cc(NCc2ccc(-c3ccccc3-c3nnn[nH]3)cc2)c(I)c(C)n1.Cl [Example 1, 2,6-dimethyl-3-iodo-4-[(2'-(1H-tetrazol-5-yl)biphenyl-4-yl)methylamino]pyridine hydrochloride]
ED50: 0.047 mg/kg
